The record followed here is patent US20250388592A1 (REMYND N.V., priority 2022, published 2025).

Broadly, the EC50 is the concentration that produces a half-maximal response. A lower EC50 goes with higher potency in that assay.

The test system of this assay is M17_3TAU(P301L) cells. As to the kind of experiment: TAU-induced cytotoxicity (LDH) in the neuroblastoma tauopathy model. In kind it is cell-based. The settings on record: Homo sapiens, 168 h, inhibition of TAU-induced toxicity, 7 days retinoic acid differentiation, LDH readout. A digest of the protocol: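 Stably transfected BE-M17 cells expressing human TAU-P301L, seeded in serum-free detection medium, then differentiated with 2.5 μM RA (added in equal volume) for 7 days at 37° C/5% CO2 to induce TAU aggregation. Cytotoxicity = supernatant LDH increase over total LDH; EC50 from dose-dependent inhibition curves.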
Take `O=C(Cc1ccc(Cl)cc1)N1CC2(CN(CCc3ccccc3)C2)C1` [Cpd B052, 2-(4-chlorophenyl)-1-(6-phenethyl-2,6-diazaspiro[3.3]heptan-2-yl)ethanone]: the EC50 amounted to 15.9 nM.

In turn, `COc1ccc(CNC2CC3(C2)CC(Nc2nc(Cc4ccc(Cl)cc4)ns2)C3)cc1OC` (stereo not drawn) [Cpd B317, N-(3-(4-chlorobenzyl)-1,2,4-thiadiazol-5-yl)-N′-(3,4-dimethoxybenzyl) spiro[3.3]heptane-2,6-diamine] displayed an EC50 of 41 nM.

The compound `COc1cccc(CC(=O)N2CC3(CN(Cc4ncccc4C)C3)C2)c1` [Cpd B416] came in with an EC50 of 2220 nM.

`O=C(NCC1CCOCC1)N1CC2(CN(Cc3ccc(F)cc3)C2)C1` [Cpd B169]: the concentration giving a half-maximal response (EC50) was found to be 881 nM.

The compound `O=C(Cc1ccc(Cl)cc1)N1CC2(CN(CCC3CCCCC3)C2)C1` [Cpd B057, 2-(4-chlorophenyl)-1-(6-(2-cyclohexylethyl)-2,6-diazaspiro[3.3]heptan-2-yl)ethanone] had an EC50 of 1.58 nM.

On to `O=C(Cc1ccc(Cl)cc1)N1CC2(CN(Cc3ncc(Cl)cn3)C2)C1` [Cpd B039, 2-(4-chlorophenyl)-1-(6-((5-chloropyrimidin-2-yl)methyl)-2,6-diazaspiro[3.3]heptan-2-yl)ethanone], for which the half-maximal effective concentration (EC50) is 56.3 nM.

In the case of `Cn1ncc(Cl)c1CN1CC2(C1)CN(C(=O)CC1CCC(F)(F)CC1)C2` [Cpd B438], the EC50 worked out at 317 nM.

Consider `Fc1ccc(Cc2nsc(NC3CC4(CC(NCc5ccccc5)C4)C3)n2)cc1` (stereo not drawn) [Cpd B301, N-benzyl-N′-(3-(4-fluorobenzyl)-1,2,4-thiadiazol-5-yl) spiro[3.3]heptane-2,6-diamine], for which the 50% effective concentration (EC50) was 11.2 nM.

Take `Cn1cc(Cl)c(CN2CC3(C2)CN(C(=O)OC2CCC(F)(F)CC2)C3)n1` [Cpd B145]: the midpoint of the response, the EC50, lay at 2.78 nM.

Compound `Cc1ccc(CCN2CC3(C2)CN(C(=O)Cc2ccc(F)cc2)C3)cc1` [Cpd B026, 2-(4-Fluoro-phenyl)-1-[6-(2-p-tolyl-ethyl)-2,6-diaza-spiro[3.3]hept-2-yl]-ethanone] had an EC50 of 26.1 nM.

Compound `O=C(NC1CCC(F)(F)CC1)N1CC2(CN(Cc3ncccc3F)C2)C1` [Cpd B441] displayed a concentration for a half-maximal effect (EC50) of 253 nM.

Compound `O=C(CC1CCC(F)(F)CC1)N1CC2(CN(Cc3ccc(F)cc3Cl)C2)C1` [Cpd B107] registered a 50% effective concentration (EC50) below 0.19 nM.

Consider `O=C(NCC1CCC(F)(F)CC1)N1CC2(CN(Cc3ncccc3C(F)(F)F)C2)C1` [Cpd B197], for which the concentration for a half-maximal effect (EC50) was found to be 12.8 nM.

`O=C(OCC12CC(F)(C1)C2)N1CC2(CN(Cc3ccc(F)cc3)C2)C1` [Cpd B129] returned an EC50 of 97 nM.

Take `Cc1ccc(CN2CC3(C2)CN(C(=O)NCc2ccc(F)cc2)C3)o1` [Cpd B191, N-(4-fluorobenzyl)-6-((2-methyl-furan-5-yl)methyl)-2,6-diazaspiro[3.3]heptane-2-carboxamide]: the EC50 stood at 144 nM.

The compound `Cn1cc(CN2CC3(C2)CN(C(=O)NCC2CCC(F)(F)CC2)C3)c(Cl)n1` [Cpd B204] came in with an EC50 of 54.9 nM.

With `Clc1ccc(Cc2nsc(NC3CC4(CC(NCc5ccc(Cl)cc5Cl)C4)C3)n2)cc1` (stereo not drawn) [Cpd B307, N-(3-(4-chlorobenzyl)-1,2,4-thiadiazol-5-yl)-N′-(2,4-dichlorobenzyl) spiro[3.3]heptane-2,6-diamine], the midpoint of the response, the EC50, lay at 1.3 nM.

`FC(F)(F)c1cccc(CCNC2CC3(C2)CC(Nc2nc(Cc4ccc(Cl)cc4)ns2)C3)c1` (stereo not drawn) [Cpd B336, N-(3-(4-chlorobenzyl)-1,2,4-thiadiazol-5-yl)-N′-(3-(trifluoromethyl)phenethyl) spiro[3.3]heptane-2,6-diamine] yielded a half-maximal effective concentration (EC50) of 7 nM.

Take `O=C(OC1CCC(F)(F)CC1)N1CC2(CN(Cc3ccc(F)cc3Cl)C2)C1` [Cpd B151]: the half-maximal effective concentration (EC50) was found to be 0.52 nM.

In turn, `Cc1cccnc1CN1CC2(C1)CN(C(=O)NC1CC(F)(F)C1)C2` [Cpd B170] registered an EC50 of 3440 nM.

`O=C(NCC1CCC(F)(F)CC1)N1CC2(CN(Cc3c(F)cccc3C(F)(F)F)C2)C1` [Cpd B459] displayed a concentration giving a half-maximal response (EC50) of 64.8 nM.

`O=C(OCC1CCOCC1)N1CC2(CN(Cc3ccc(F)cc3)C2)C1` [Cpd B128, (tetrahydro-2H-pyran-4-yl)methyl 6-(4-fluorobenzyl)-2,6-diazaspiro[3.3]heptane-2-carboxylate] returned a concentration for a half-maximal effect (EC50) of 126 nM.

The compound `COc1cccc(CN2CC3(C2)CN(C(=O)CC2CCCCC2)C3)c1` [Cpd B073] displayed a half-maximal effective concentration (EC50) of 5 nM.

`COc1cccc(CN2CC3(C2)CN(S(=O)(=O)c2ccc(C(F)(F)F)cc2)C3)c1` [Cpd B220] showed an EC50 of 33.9 nM.

Compound `O=C(OCC1CCC(F)(F)CC1)N1CC2(CN(Cc3ncccc3C(F)(F)F)C2)C1` [Cpd B163] yielded an EC50 of 3.67 nM.

For `Cc1cccnc1CN1CC2(C1)CN(C(=O)Nc1ccc(Cl)cc1)C2` [Cpd B179], the concentration for a half-maximal effect (EC50) is 16.1 nM.

As to `O=C(Cc1cccc(C(F)(F)F)c1)N1CC2(CN(Cc3ccc(F)cc3)C2)C1` [Cpd B091], the EC50 worked out at 4.56 nM.

Compound `O=C(NCC1CCC(F)(F)CC1)N1CC2(CN(Cc3ncccc3F)C2)C1` [Cpd B199] returned a concentration for a half-maximal effect (EC50) of 53.9 nM.

Turning to `O=C(CC1CCC(F)(F)CC1)N1CC2(CN(Cc3ccc(F)cn3)C2)C1` [Cpd B115], the EC50 amounted to 41.3 nM.

`Cc1c(CN2CC3(C2)CN(C(=O)CC2CCC(F)(F)CC2)C3)cnn1C` [Cpd B461] gave a concentration for a half-maximal effect (EC50) of 56.5 nM.

For the compound `O=C(Cc1ccc(Cl)cc1)N1CC2(CN(Cc3ccc(Cl)cc3)C2)C1` [Cpd B004, 1-(6-(4-chlorobenzyl)-2,6-diazaspiro[3.3]heptan-2-yl)-2-(4-chlorophenyl)ethanone], a half-maximal effect (EC50) was put at 2.86 nM.

`COC(=O)c1ccc(CN2CC3(C2)CN(C(=O)Cc2ccc(F)cc2)C3)cc1` [Cpd B014, 4-{6-[2-(4-Fluoro-phenyl)-acetyl]-2,6-diaza-spiro[3.3]hept-2-ylmethyl}-benzoic acid methyl ester] yielded an EC50 of 0.92 nM.

As for `Cc1cccnc1CN1CC2(C1)CN(C(=O)OCc1ccc(Cl)cc1)C2` [Cpd B137], the EC50 amounted to 49.3 nM.

For the compound `O=C(NC12CC(F)(C1)C2)N1CC2(CN(Cc3ccc(F)cc3)C2)C1` [Cpd B190, 6-(4-fluorobenzyl)-N-(3-fluorobicyclo[1.1.1]pentan-1-yl)-2,6-diazaspiro[3.3]heptane-2-carboxamide], it took 491 nM to reach a half-maximal effect (EC50).

Regarding `COc1cccc(CN2CC3(C2)CN(C(=O)NCC2CCCCC2)C3)c1` [Cpd B184], the EC50 turned out to be 5.12 nM.

The compound `Cc1cccc(CNC2CC3(C2)CC(Nc2nc(Cc4ccc(Cl)cc4)ns2)C3)c1` (stereo not drawn) [Cpd B324, N-(3-(4-chlorobenzyl)-1,2,4-thiadiazol-5-yl)-N′-(3-methylbenzyl) spiro[3.3]heptane-2,6-diamine] showed an EC50 of 2.6 nM.

`O=C(NCC1CCC(F)(F)CC1)N1CC2(CN(Cc3ccc(F)cn3)C2)C1` [Cpd B453] displayed an EC50 of 83.6 nM.

For the compound `O=C(OCC1CCC(F)(F)CC1)N1CC2(CN(Cc3ccc(F)cc3C(F)(F)F)C2)C1` [Cpd B166], it took 0.74 nM to reach a half-maximal effect (EC50).

Consider `O=C(Cc1ccc(F)cc1)N1CC2(CN(Cc3ccccc3OC(F)(F)F)C2)C1` [Cpd B013, 2-(4-Fluoro-phenyl)-1-[6-(2-trifluoromethoxy-benzyl)-2,6-diaza-spiro[3.3]hept-2-yl]-ethanone], for which the midpoint of the response, the EC50, lay at 6.27 nM.

With `O=C(Cc1ccc(Cl)cc1)N1CC2(CN(CCc3ccccc3Cl)C2)C1` [Cpd B062, 1-(6-(2-chlorophenethyl)-2,6-diazaspiro[3.3]heptan-2-yl)-2-(4-chlorophenyl)ethanone], the EC50 was 1.08 nM.

Regarding `O=C(NC1CCC(F)(F)CC1)N1CC2(CN(Cc3ccc(Cl)cn3)C2)C1` [Cpd B457], a half-maximal response (EC50) required 71.5 nM.

For `O=C(Cc1cccc(Cl)c1)N1CC2(CN(Cc3ccc(F)cc3)C2)C1` [Cpd B433], the concentration giving a half-maximal response (EC50) amounted to 469 nM.

As for `O=C(NC1CCC(F)(F)CC1)N1CC2(CN(Cc3ncccc3C(F)(F)F)C2)C1` [Cpd B206], the EC50 was determined as 31 nM.

On to `O=C(OCC1CCCC1)N1CC2(CN(Cc3ccc(F)cc3)C2)C1` [Cpd B131], for which the EC50 was determined as 4.38 nM.

Consider `Cc1cccnc1CN1CC2(C1)CN(C(=O)Oc1ccc(Cl)cc1)C2` [Cpd B141], for which the EC50 is 2.57 nM.

For the compound `Cc1ncc(CN2CC3(C2)CN(C(=O)NCc2ccc(F)cc2)C3)s1` [Cpd B417], the concentration for a half-maximal effect (EC50) worked out at 1690 nM.

`COc1cc(CN2CC3(C2)CN(C(=O)Cc2ccc(Cl)cc2)C3)ccn1` [Cpd B005, 2-(4-chlorophenyl)-1-(6-((2-methoxypyridin-4-yl)methyl)-2,6-diazaspiro[3.3]heptan-2-yl)ethanone]: the 50% effective concentration (EC50) amounted to 162 nM.

The compound `Cn1cc(Cl)c(CN2CC3(C2)CN(C(=O)OCC2CCC(F)(F)CC2)C3)n1` [Cpd B159] returned an EC50 of 2.29 nM.

On to `Cn1cnc(CN2CC3(C2)CN(C(=O)CC2CCC(F)(F)CC2)C3)c1` [Cpd B126], for which the concentration for a half-maximal effect (EC50) turned out to be 192 nM.

The compound `Cc1cccnc1CN1CC2(C1)CN(C(=O)CC13CC(C1)C3)C2` [Cpd B408] displayed a concentration giving a half-maximal response (EC50) of 4000 nM.

`COc1cccc(CN2CC3(CN(Cc4ccc(Cl)cc4)C3)C2)c1` [Cpd B225, 2-(4-chlorobenzyl)-6-(3-methoxybenzyl)-2,6-diazaspiro[3.3]heptane] displayed a half-maximal effective concentration (EC50) of 5.27 nM.

`COc1cccc(CN2CC3(C2)CN(S(=O)(=O)c2ccc(OC(F)(F)F)cc2)C3)c1` [Cpd B219] registered an EC50 of 8.34 nM.

For the compound `O=C(Nc1cccc(Cl)c1)N1CC2(CN(Cc3ccc(F)cc3)C2)C1` [Cpd B466], the half-maximal effective concentration (EC50) is 18.6 nM.

Regarding `Cc1cccnc1CN1CC2(C1)CN(C(=O)CC1CCC(F)(F)CC1)C2` [Cpd B083], it took 18.9 nM to reach a half-maximal effect (EC50).

`Cc1ccccc1CC(=O)N1CC2(CN(Cc3ccccc3C)C2)C1` [Cpd B434] had an EC50 of 396 nM.

`O=C(Cc1ccccn1)N1CC2(CN(Cc3ccc(F)cc3)C2)C1` [Cpd B414]: the response was half-maximal at 2710 nM (EC50).

As for `Cc1cccnc1CN1CC2(C1)CN(C(=O)NC1CCC(F)(F)CC1)C2` [Cpd B171], the EC50 turned out to be 77.8 nM.

The compound `O=C(NC1CCC(F)(F)CC1)N1CC2(CN(Cc3ccccc3C(F)(F)F)C2)C1` [Cpd B207] displayed an EC50 of 17.8 nM.

`Cn1ncc(CN2CC3(C2)CN(C(=O)OCC2CCC(F)(F)CC2)C3)c1Cl` [Cpd B158] had an EC50 of 65.3 nM.

The compound `COc1cccc(CN2CC3(C2)CN(S(=O)(=O)Cc2ccc(F)cc2)C3)c1` [Cpd B221] yielded an EC50 of 18.6 nM.
